In assay [1] the target is Envelope glycoprotein gp160 (Human immunodeficiency virus 1, UniProt Q6QLK5). Nature of the assay: cell-free HIV fusion peptide-binding blockers – biochemical, uHTS, fluorescence dequenching, […] (AID 1986).
Assay [2] is described as follows: NIH-3T3 fibroblast cytotoxicity, dose response, cytotoxicity control, cell-based, fluorescence, Alamar Blue, secondary assay (AID 2327).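 Also: NIH-3T3 mouse fibroblasts cultured with fluconazole at 8 µg/mL.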 Format: functional. A general note: Alamar Blue is a resazurin reagent that responds to reducing activity.
The nature of assay [3]: fluconazole-exposed Candida albicans growth modulators – fluorescence, retest, confirmation (AID 2467). It is filed as functional, cell-based.
The target of assay [4] is T1, Short transient receptor potential channel 4 (Mus musculus, UniProt Q9QUQ5).
T1 sequence (Q9QUQ5 whole entry): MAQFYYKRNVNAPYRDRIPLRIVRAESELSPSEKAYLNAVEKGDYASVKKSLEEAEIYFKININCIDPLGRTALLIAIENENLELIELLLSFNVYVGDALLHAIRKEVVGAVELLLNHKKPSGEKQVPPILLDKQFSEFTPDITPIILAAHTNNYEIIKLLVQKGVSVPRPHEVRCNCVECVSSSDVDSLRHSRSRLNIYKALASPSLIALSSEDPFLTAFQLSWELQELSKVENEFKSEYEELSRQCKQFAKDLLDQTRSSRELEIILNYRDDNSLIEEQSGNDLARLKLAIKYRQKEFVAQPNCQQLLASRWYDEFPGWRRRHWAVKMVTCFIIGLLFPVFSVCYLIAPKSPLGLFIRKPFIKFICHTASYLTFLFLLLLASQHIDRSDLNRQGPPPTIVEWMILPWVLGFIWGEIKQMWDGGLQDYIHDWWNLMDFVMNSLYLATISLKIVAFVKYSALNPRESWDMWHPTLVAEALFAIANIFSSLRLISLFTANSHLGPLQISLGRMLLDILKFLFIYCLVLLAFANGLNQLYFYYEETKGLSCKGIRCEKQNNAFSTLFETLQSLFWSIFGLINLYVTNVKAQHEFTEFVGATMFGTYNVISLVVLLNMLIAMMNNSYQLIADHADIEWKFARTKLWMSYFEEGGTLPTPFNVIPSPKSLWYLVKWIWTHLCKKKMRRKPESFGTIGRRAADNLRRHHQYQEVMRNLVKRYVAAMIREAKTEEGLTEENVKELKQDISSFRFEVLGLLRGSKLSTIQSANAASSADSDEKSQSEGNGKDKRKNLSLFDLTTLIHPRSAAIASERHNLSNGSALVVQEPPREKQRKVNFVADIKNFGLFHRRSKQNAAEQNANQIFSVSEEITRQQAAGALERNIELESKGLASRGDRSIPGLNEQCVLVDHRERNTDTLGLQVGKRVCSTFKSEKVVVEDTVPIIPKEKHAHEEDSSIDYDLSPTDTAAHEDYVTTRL
The assay is described as follows: block of DAMGO-driven TRPC4 calcium entry – cell-based, HEK293 TRPC4/mu-opioid, Fluo-4 calcium, dose response (AID 434942).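 Also: potency of inhibitors blocking the TRPC4 calcium response.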 Format: functional.

Assay [5] relates to Vero. The assay is described as follows: viability of Vero cells under compound – cytotoxicity control for flavivirus capping enzyme inhibitors (AID 588742). Conditions: Chlorocebus sabaeus. Format: functional.
The target of assay [6] is Genome polyprotein (dengue virus type 2, UniProt P29990). The assay is described as follows: flavivirus cap methylation enzyme inhibition – biochemical, confirmation dose response, primary screen (AID 588689). Format: functional.
Assay [7] concerns the target Voltage-gated inwardly rectifying potassium channel KCNH2 (Homo sapiens, UniProt Q12809). To be noted: Potency.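 Also: confirmatory quantitative high-throughput screen measuring inhibition of hERG channel activity.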
Assay [8] is described as follows: Trypanosoma cruzi growth suppression in host cells – NIH3T3 host cells, beta-gal luminescence, confirmation (AID 2044).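 Also: intracellular parasites grown in NIH/3T3 mouse fibroblasts as host cells; luminescent beta-galactosidase reporter signal from transgenic T. cruzi replicating inside host cells; inhibitors lower the luminescence signal.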 It is filed as functional, cell-based.
Assay [9] is described as follows: NIH3T3 cell viability loss – ATP luminescence, mouse fibroblasts, counter-screen, dose response (AID 2010).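 Also: cells exposed to compound for about 90 hours before reading.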 It is filed as functional, cell-based.
Assay [10] has as its target T2, CAAX prenyl protease 2 (Saccharomyces cerevisiae S288c, UniProt Q03530).
T2 sequence (Q03530 whole entry): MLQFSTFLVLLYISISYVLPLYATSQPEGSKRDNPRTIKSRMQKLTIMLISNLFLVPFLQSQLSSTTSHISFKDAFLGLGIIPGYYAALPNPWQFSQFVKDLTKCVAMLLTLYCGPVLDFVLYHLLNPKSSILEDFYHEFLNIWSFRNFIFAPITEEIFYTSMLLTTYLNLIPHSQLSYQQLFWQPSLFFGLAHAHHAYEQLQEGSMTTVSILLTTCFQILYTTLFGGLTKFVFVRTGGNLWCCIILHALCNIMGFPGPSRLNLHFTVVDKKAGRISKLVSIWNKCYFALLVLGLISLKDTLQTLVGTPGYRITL
It is filed as biochemical.

The target of assay [11] is Delta-type opioid receptor (Homo sapiens, UniProt P41143). Nature of the assay: Counterscreen for agonists of heterodimerization of the mu 1 (OPRM1) and delta 1 (OPRD1) opioid receptors: Luminescence-based cell-based high throughput dose response assay to identify agonists of OPRD1 homodimerization. [Related pubchem assays (depositor defined):AID504326, AID504355, AID504692, AID504904, AID504905]. Format: functional. (Counterscreens check selectivity or assay interference.)

The target of assay [12] is Mu-type opioid receptor (Homo sapiens, UniProt P35372). The assay is described as follows: Counterscreen for agonists of heterodimerization of the mu 1 (OPRM1) and delta 1 (OPRD1) opioid receptors: Luminescence-based cell-based high throughput dose response assay to identify agonists of OPRM1 homodimerization. Format: functional.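 Also: U2OS cells expressing OPRM1 and beta-arrestin as split beta-galactosidase partners.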
Assay [13] deals with 5-hydroxytryptamine receptor 5A (Homo sapiens, UniProt P47898). The assay is described as follows: Counterscreen for agonists of OPRM1-OPRD1 heterodimerization: luminescence-based cell-based high throughput dose response assay to identify agonists of 5-hydroxytryptamine (serotonin) 5A receptor (HTR5A). [Related pubchem assays (depositor defined):AID504326, AID504355, AID504692, AID504904, AID504905]. Format: functional.

Assay [14] addresses CAAX prenyl protease 2 (Homo sapiens, UniProt Q9Y256). The assay is described as follows: inhibition of Ras-converting CAAX protease Rce1 – biochemical, yeast membranes, quenched-peptide fluorescence, cherry-pick, dose response (AID 588849).
For assay [15], the target named is Hexokinase-1 (Homo sapiens, UniProt P19367). Nature of the assay: SAR analysis of small molecule inhibitors of hexokinase domain containing I (HKDC1) in the hexokinase 1 selectivity assay. [Related pubchem assays (depositor defined):AID493160, AID493190]. Format: functional.
In assay [16] the target is T3, Hexokinase HKDC1 (Homo sapiens, UniProt Q2TB90).
T3 sequence (Q2TB90 whole entry): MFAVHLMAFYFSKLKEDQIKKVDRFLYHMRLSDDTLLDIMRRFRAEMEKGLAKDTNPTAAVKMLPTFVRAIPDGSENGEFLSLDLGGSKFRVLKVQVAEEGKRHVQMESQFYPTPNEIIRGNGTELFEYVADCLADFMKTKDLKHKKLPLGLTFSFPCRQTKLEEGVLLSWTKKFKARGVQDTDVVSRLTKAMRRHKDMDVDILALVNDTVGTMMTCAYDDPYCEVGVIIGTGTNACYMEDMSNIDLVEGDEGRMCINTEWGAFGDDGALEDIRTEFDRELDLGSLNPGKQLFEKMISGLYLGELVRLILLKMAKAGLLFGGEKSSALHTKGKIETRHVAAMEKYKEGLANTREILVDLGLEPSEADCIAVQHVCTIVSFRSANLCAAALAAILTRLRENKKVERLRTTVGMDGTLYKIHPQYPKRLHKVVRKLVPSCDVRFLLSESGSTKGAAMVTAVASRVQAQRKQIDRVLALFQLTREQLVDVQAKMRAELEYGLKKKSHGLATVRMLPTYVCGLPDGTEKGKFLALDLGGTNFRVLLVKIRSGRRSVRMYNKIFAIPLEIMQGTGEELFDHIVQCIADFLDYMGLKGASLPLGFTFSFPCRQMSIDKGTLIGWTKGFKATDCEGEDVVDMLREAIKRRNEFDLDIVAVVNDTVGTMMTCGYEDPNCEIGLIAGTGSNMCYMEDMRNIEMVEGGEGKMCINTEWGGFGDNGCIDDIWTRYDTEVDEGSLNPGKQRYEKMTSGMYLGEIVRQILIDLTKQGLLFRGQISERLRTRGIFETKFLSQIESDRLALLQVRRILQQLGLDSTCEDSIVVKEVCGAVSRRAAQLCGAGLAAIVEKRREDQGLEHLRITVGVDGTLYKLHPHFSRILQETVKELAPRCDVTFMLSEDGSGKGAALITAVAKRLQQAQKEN
The assay is described as follows: SAR analysis of small molecule inhibitors of hexokinase domain containing I (HKDC1). [Related pubchem assays (depositor defined):AID493160, AID493190]. It is filed as functional.

The target of assay [17] is Cysteine protease ATG4B (Homo sapiens, UniProt Q9Y4P1). It is filed as functional.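 Also: Fluorescence-based dose-response confirmation assay measuring inhibition of ATG4B activity.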
The target of assay [18] is Phospholipase A2 (Homo sapiens, UniProt P04054). It is filed as functional.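 Also: confirmatory dose-response counterscreen on phospholipase A2, testing hits that came from an ultra-high-throughput screen for ATG4B inhibitors.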
In assay [19] the test system is Candida albicans. The assay is described as follows: fluconazole-resistant Candida strain growth inhibitors – CaCi-8 strain, dry powder, set 4, dose response (AID 488950). It is filed as functional, organism-based.
The test system of assay [20] is Candida albicans. The assay is described as follows: C. albicans growth inhibition with fluconazole – CaCi-2 strain, Alamar Blue, dry powder, set 4, dose response (AID 488943). Format: functional, organism-based.
Assay [21] deals with Candida albicans. The assay is described as follows: resistant Candida growth with fluconazole co-treatment – CaCi-8 strain, Alamar Blue, dry powder, set 3, dose response (AID 488905). It is filed as functional, organism-based.
Assay [22] relates to Candida albicans. The assay is described as follows: Candida growth inhibition combined with fluconazole – CaCi-2 strain, Alamar Blue, dry powder, set 3, dose response (AID 488907). Format: functional, organism-based.

The source made the active and inactive calls. Some results are limits rather than exact numbers.

The IC50 is the midpoint of a concentration-inhibition curve. For orientation: EC50 means the concentration needed to bring the measured effect to its halfway point. In general, CC50 refers to the concentration giving 50% cytotoxicity. As a reminder, the AC50 is the concentration at which the activity in the assay is half-maximal.

Voltage-gated inwardly rectifying potassium channel KCNH2, sequence (Q12809 whole entry): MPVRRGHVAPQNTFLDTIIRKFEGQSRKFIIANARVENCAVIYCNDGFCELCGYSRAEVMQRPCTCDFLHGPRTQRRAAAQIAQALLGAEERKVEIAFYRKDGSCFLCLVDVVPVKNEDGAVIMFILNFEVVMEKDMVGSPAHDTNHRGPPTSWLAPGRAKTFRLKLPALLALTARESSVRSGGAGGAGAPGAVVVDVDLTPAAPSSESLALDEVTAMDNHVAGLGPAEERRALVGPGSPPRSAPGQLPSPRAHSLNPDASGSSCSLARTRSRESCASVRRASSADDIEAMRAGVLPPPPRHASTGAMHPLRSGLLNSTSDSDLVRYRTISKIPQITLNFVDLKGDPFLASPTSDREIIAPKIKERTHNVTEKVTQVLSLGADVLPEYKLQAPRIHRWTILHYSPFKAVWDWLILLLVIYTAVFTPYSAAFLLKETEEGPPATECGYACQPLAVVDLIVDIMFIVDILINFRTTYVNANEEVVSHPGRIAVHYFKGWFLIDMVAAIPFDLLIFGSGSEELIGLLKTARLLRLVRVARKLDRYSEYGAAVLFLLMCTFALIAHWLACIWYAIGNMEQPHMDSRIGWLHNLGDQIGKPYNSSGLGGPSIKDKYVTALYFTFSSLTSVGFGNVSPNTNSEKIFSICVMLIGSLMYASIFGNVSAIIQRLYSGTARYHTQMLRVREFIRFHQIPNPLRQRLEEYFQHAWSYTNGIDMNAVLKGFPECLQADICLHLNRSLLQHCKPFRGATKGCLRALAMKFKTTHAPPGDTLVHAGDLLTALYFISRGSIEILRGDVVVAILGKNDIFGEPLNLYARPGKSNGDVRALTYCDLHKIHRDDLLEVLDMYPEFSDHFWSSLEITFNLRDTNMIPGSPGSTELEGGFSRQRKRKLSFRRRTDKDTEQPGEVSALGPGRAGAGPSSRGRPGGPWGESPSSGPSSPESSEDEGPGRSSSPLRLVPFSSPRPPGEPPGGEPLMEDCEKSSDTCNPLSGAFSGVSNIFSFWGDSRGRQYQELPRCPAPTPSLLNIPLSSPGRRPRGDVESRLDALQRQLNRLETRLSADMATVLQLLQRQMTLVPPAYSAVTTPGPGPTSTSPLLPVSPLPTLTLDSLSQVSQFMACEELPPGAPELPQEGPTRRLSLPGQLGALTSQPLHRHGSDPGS
Delta-type opioid receptor, sequence (P41143 whole entry): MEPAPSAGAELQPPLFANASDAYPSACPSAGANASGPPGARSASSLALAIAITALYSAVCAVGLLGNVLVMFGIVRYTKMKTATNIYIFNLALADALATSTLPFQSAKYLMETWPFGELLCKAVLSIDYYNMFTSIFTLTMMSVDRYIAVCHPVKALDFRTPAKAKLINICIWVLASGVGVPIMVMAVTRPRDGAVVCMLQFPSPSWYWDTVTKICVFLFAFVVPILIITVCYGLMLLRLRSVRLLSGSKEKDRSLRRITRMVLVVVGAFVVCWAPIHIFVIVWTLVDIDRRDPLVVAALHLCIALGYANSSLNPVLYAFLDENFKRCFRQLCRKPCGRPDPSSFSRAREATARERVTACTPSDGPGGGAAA
Mu-type opioid receptor, sequence (P35372 whole entry): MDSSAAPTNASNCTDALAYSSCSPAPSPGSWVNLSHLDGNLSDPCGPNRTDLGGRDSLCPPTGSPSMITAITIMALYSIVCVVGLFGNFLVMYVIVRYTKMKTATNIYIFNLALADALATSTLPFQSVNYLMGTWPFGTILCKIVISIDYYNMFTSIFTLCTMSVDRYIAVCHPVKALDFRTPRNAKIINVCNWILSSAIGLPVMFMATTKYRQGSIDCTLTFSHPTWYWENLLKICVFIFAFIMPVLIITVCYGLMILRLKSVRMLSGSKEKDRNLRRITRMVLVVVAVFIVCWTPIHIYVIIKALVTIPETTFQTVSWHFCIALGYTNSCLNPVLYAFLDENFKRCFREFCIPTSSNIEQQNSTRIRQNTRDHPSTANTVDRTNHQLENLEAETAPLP
Envelope glycoprotein gp160, sequence (Q6QLK5 whole entry, the tested form may be a part): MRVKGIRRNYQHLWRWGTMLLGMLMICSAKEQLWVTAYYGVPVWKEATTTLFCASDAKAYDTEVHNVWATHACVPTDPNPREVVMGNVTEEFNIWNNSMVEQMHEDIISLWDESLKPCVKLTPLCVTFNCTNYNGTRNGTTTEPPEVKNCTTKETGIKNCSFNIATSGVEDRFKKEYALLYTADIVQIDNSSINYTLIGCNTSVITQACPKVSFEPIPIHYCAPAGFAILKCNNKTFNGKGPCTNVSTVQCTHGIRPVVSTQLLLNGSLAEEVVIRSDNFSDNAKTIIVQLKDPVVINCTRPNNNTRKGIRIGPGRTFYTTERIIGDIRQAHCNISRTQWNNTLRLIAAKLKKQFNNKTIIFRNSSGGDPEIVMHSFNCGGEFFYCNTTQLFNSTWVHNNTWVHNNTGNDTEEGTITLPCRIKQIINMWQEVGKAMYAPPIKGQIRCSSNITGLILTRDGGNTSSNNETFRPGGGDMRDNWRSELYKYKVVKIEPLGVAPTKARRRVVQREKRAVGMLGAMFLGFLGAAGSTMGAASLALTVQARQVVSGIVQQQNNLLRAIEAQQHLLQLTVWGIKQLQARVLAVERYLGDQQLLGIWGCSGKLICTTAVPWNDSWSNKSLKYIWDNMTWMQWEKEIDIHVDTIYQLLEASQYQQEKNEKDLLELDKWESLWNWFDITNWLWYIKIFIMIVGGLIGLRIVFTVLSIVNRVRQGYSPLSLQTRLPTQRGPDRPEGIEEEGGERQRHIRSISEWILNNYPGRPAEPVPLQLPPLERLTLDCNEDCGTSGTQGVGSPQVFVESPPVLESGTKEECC
Cysteine protease ATG4B, sequence (Q9Y4P1 whole entry): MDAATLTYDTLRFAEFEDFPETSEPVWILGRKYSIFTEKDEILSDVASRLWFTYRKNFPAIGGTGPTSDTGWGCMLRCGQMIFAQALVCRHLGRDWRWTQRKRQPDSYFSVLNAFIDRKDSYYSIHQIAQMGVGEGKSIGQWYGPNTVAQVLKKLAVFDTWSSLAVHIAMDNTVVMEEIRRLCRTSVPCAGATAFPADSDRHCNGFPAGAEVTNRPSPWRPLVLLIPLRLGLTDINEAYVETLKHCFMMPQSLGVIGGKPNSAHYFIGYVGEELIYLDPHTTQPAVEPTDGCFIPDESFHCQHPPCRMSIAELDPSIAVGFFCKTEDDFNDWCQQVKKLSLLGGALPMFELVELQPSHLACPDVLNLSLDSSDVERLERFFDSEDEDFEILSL
Genome polyprotein, sequence (P29990 2492-3391 limits assumed): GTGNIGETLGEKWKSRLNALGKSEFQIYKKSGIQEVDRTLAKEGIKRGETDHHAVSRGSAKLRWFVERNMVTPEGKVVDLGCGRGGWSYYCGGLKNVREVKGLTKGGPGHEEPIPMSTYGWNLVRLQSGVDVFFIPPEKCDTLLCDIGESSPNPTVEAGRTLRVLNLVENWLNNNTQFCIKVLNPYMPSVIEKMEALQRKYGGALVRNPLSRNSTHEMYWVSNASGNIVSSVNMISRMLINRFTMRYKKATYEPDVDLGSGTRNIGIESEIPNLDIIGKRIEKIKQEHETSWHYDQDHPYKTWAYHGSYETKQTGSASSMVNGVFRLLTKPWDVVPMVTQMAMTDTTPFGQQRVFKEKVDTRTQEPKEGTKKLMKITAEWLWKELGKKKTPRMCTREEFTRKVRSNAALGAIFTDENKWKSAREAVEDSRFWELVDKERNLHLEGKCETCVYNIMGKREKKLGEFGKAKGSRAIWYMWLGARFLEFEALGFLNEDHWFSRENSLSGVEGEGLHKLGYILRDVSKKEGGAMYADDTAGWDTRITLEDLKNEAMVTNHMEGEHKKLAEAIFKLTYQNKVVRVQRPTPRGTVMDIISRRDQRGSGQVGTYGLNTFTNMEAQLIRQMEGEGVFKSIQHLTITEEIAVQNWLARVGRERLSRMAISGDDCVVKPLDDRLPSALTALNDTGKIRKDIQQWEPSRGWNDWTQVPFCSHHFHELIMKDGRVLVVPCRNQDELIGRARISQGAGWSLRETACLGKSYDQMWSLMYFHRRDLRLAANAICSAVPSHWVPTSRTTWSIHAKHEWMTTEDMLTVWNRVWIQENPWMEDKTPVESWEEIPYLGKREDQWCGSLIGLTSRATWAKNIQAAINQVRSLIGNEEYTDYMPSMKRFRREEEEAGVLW
CAAX prenyl protease 2 (Homo sapiens, UniProt Q9Y256), sequence (Q9Y256 whole entry, the tested form may be a part): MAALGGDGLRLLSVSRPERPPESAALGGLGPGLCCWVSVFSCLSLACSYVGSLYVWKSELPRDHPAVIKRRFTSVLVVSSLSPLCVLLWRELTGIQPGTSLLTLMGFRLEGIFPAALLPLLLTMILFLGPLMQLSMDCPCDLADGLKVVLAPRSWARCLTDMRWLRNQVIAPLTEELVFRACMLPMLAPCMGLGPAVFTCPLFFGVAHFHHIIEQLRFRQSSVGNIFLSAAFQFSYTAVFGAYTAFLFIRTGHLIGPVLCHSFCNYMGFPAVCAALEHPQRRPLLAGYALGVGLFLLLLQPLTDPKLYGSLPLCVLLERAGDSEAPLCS
5-hydroxytryptamine receptor 5A, sequence (P47898 whole entry): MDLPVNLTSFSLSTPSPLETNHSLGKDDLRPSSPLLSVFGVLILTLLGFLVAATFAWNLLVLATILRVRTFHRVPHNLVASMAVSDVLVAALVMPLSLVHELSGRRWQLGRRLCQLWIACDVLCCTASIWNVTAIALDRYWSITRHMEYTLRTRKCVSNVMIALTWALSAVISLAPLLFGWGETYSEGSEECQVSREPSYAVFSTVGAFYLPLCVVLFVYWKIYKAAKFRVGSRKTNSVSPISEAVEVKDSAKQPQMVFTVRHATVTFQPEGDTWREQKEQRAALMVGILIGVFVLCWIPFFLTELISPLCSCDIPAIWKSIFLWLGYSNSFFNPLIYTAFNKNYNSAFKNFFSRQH
Phospholipase A2, sequence (P04054 whole entry): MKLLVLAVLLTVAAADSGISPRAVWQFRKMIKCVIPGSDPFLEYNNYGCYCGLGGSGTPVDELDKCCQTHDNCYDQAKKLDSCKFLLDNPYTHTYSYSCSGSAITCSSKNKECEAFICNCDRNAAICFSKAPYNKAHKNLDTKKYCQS

Consider `CCc1ccc(/C=C2/SC(=S)N(CCCC(=O)Nc3ccccc3C(=O)O)C2=O)cc1`, for which the IC50 is > 99 µM (inactive) in assay [1] and 31.4 µM (active) in assay [6]. Further, the EC50 in assay [2] was 14 µM (inconclusive); in [3], 4.17 µM (active); in [4], 4.22 µM (active). Also, the half-maximal cytotoxic concentration (CC50) in assay [5] is > 40 µM (active).
For the compound `c1ccc(P(c2ccccc2)c2ccccc2)cc1`, the AC50 in [7] is 14.1 µM (inconclusive).
For `CCN(Cc1ccccc1)S(=O)(=O)c1ccc(C(=O)N(CCCN(C)C)c2nc3c(C)c(C)ccc3s2)cc1`, the EC50 in assay [8] is 0.373 µM (active); in assay [9], 5.55 µM (active); in assay [11], 78.9 µM (inactive); in assay [12] it was 56.3 µM (inactive); in [13], > 92.4 µM (inactive). Besides, the AC50 in assay [10] is 11.6 µM (active); in assay [14], 18.9 µM (active).
`O=C(Nc1cccc(C(F)(F)F)c1)c1cccc(NC(=O)c2ccc3nccnc3c2)c1`: the IC50 in assay [15] and in assay [16] was > 80 µM (inactive) each time.
On to `Cc1ccc(C(=O)NC(=S)Nc2ccccc2C(F)(F)F)cc1C`, for which the results for the IC50 in assay [17] and in assay [18] were 14.6 µM (active) and 6.91 µM (active), respectively.
Turning to `O=C(c1ccc(Cl)cc1)N1CCN(c2ncccn2)CC1`, the AC50 in [19] is 2.91 µM (active); in [20], 3.81 µM (active); in assay [21] it was 17.6 µM (active); in assay [22] it was 0.57 µM (active).

The record behind these values is ChEMBL document CHEMBL1201862, “PubChem BioAssay data set” (2004).
